Results from patent US9044491B2, “Method for improving blood flow using stilbenoid derivatives” (The Board of Trustees of the University of Arkansas, priority 2010, dated 2015).

How the values were obtained:
[1] = system: cecal ligation and puncture model (CLP) of sepsis-induced renal injury; assay: Murine CLP model of sepsis, tRes 30 mg/kg (Example 5); assay type: in vivo, mouse; settings: 30 mg/kg i.p. 30 min prior to and 6 hr post CLP; 18 hr post CLP
Source text: Control (sham) mice underwent surgery but not CLP. Each treatment group contained 4-5 mice. Renal ONOO^− generation (rhodamine fluorescence) and renal peritubular capillary perfusion were quantified using intravital video microscopy (IVVM) on anesthetized mice in each of the treatment groups.

[2] = system: CLP or Control (Sham) mice; assay: Renal arterial blood flow by Doppler flow probe; assay type: in vivo, mouse
Source text: Under isoflurane anesthesia, the right kidney was exposed by flank incision and the renal artery and vein were carefully dissected from surrounding tissue with Dumont-5 forceps. The renal artery was isolated from the vein and a Transonic Systems (Ithaca, N.Y.) 0.5 PSL renal artery Doppler flow probe was positioned around the renal artery. The probe was calibrated in water using the zero and scale settings on the TS420 flowmeter (Transonic Systems). […] Body temperature was maintained at 36 to 37° C. with a heating lamp. Data were expressed in ml/min/g kidney weight.
Renal blood flow was measured essentially as described above in Example 10 following CPL surgery or control treatment (no surgery). CPL-treated mice were administered 10 mg/kg of resveratrol, 2.5 mg/kg of resveratrol-3-sulfate, or vehicle. […] In fact, resveratrol-3-sulfate produced the same degree of reversal at 25% of the dose of resveratrol.

[3] = system: cecal ligation and puncture model (CLP); assay: RNS generation in renal tubules after CLP (rhodamine IVVM, anti-nitrotyrosine staining); assay type: in vivo, mouse; settings: for rhodamine fluorescence (RNS generation in renal tubules): 18 hours after CLP
Method: The reactive nitrogen species peroxynitrite preferentially oxidizes DHR to fluorescent rhodamine that is visualized at 535 nm excitation and 590 nm emission. Still images exposed for 500 ms were captured from fields of view used to determine capillary perfusion. Fluorescence intensity was measured by ImageJ (National Institutes of Health, Bethesda, Md.) after first subtracting background fluorescence intensity. Representative images of fluorescence are shown in FIG. 10, panels (A)-(C), and the quantification of fluorescence is shown in FIG. 10 panel D. Data are expressed as arbitrary units/μg. CLP increased the generation of RNS in the renal tubules compared to Control (Sham). […] Antigens were unmasked using 10 mM citrate (pH 6.0) and 95° C. for 30 min. Gill's hematoxylin II was used as a counterstain. […] FIG. 12 (E)-(G) show nitrotyrosine staining. After CLP, nitrotyrosine was intense in renal tubules but not in glomeruli. Two doses of tRes blocked formation of nitrotyrosine adducts.

CLP mice [4] = assay: Survival study after CLP; assay type: in vivo, mouse; settings: 10 mg/kg at 6, 12, and 18 hours following CLP, monitored for 48 h
CLP mice [5] = assay: Systemic serum nitric oxide levels after CLP; assay type: in vivo, mouse; settings: CLP mice at 18 hours, two doses
Method: Serum nitrate and […] were determined using the Total Nitric Oxide Assay Kit (Assay Designs, Ann Arbor, Mich.) as directed by the manufacturer. Data were expressed as serum nitrate+nitrate concentration in […].

CB1 receptors = assay type: biochemical, mouse; settings: 10 μM compound, 30 min at 30° C.
CLP mice [6] = assay: Serum creatinine and blood urea nitrogen after CLP; assay type: in vivo, mouse
Method: Acute Kidney Injury (AKI) is accompanied by elevated blood urea nitrogen levels, elevated creatinine levels, and low blood pressure. Serum creatinine and blood urea nitrogen (BUN) were measured using the QuantiChrom® Creatinine Assay kit and Urea Assay Kit (BioAssay Systems, Hayward Calif.).

[7] = system: cecal ligation and puncture model (CLP) of sepsis-induced renal injury; assay: Renal microcirculation after CLP by intravital video microscopy; assay type: in vivo, mouse; settings: for capillary perfusion / RBC velocity / volumetric blood flow: 18 hours after CLP
Method: Control (sham) mice underwent surgery but not CLP. Fresh solutions of tRes were prepared in dimethyl sulfoxide as the vehicle (veh) and diluted in normal saline before use. Dextran and […] were administered to the penile vein to visualize the capillary vascular space and detect RNS generation, respectively. The left kidney was exposed by a flank incision and positioned on a glass stage with a fluorescent microscope equipped with an Axiocam HSm camera. Intravital Video Microscopy (IVVM) of 10 s intervals at 200× magnification were acquired from randomly selected, non-overlapping fields of view. Capillaries were randomly selected for the 10 sec videos and categorized as “continuous flow” where red blood cell (RBC) movement was continuous; “intermittent flow” where RBC movement stopped or reversed; or “no flow” where no RBC movement was detected as shown in FIG. 8. RBC velocity was calculated in continuously flowing capillaries by measuring the distance traveled by a single RBC over time, expressed in μm/s.

[8] = system: CLP or Control (Sham) mice; assay: Mean arterial pressure and heart rate by biotelemetry; assay type: in vivo, mouse
Method: Mean arterial pressure (MAP) and heart rate (HR) were monitored continuously in conscious mice using biotelemetry. Transmitters (Data Sciences International, Minneapolis Minn.) were implanted into the carotid artery under isoflurane anesthesia and the animals were allowed to recover for 48 h. Mice were re-anesthetized with isoflurane and received CLP or Control (Sham) surgery. Cardiovascular parameters were recorded for 10 s every 5 min.

[9] = 10 mg/kg administered 6 hours after CLP surgery, single dose
[10] = at 6 hours after CLP, administration at 5.5 hours
[11] = CLP mice, 3, 10, or 30 mg/kg i.p. at 5.5 hours

With `Oc1ccc(/C=C/c2cc(O)cc(O)c2)cc1` [tRes, trans-resveratrol] the “RNS generation in the kidney” value [1] was “blocked”, the renal capillary perfusion [1] was “preserved” and the “Renal Arterial Blood Flow (RBF)” value ([2]; CLP mice at 6 hours, 10 mg/kg via the penile vein at 5.5 hours) was 2.6 ± 0.6 mL/min/g. For the same compound, the renal blood flow ([2]; CPL-treated mice, 10 mg/kg (Example 15)) was “increased blood flow”, the “Renal Arterial Blood Flow (RBF)” value ([2]; Control (Sham) mice, 10 mg/kg) was “without effect” and the “rhodamine fluorescence (RNS generation in renal tubules)” value ([3]; second dose at 12 hours) was “completely blocked”. For the same compound, the “rhodamine fluorescence (RNS generation in renal tubules)” value ([3]; single dose at 6 hours) was “partially, but significantly reduced”, the “formation of nitrotyrosine adducts” value ([3]; CLP, two doses) was “blocked” and the “survival in CLP mice” value (CLP mice [4]) was “significantly improve survival”. For the same compound, the “serum nitrate+nitrate concentration” value (CLP mice [5]) was “did not affect”, the “basal G-protein activity” value (CB1 receptors) was “little effect” and the BUN levels (CLP mice [6]; [9]) was “not”. The serum creatinine levels (CLP mice [6]; [9]) was “significantly reduced”, the BUN levels (CLP mice [6]; additional dose given at 12 h) was “significant reduction” and the serum creatinine levels (CLP mice [6]; additional dose given at 12 h) was “significant reduction”. The capillary perfusion ([7]; 10 mg/kg at 6 hours and second dose at 12 hours) was “prevented the change”, the RBC velocity ([7]; additional dose at 12 hours) was “complete restoration” and the volumetric blood flow ([7]; additional dose at 12 hours) was “complete restoration”. The RBC velocity ([7]; single dose) was “did not improve”, the volumetric blood flow ([7]; single dose) was “did not improve” and the capillary perfusion ([7]; single dose 10 mg/kg at 6 hours) was “unable to maintain perfusion”. The “mean RBC velocity” value ([7]; at 6 h after CLP) was “improved”, the “renal capillary volumetric blood flow” value ([7]; at 6 h after CLP) was “improved” and the “most efficacious dose for capillary perfusion” value [7, 10] was 10 mg/kg. The “renal cortical peritubular capillary perfusion” value [7, 10] was “improved perfusion in a dose dependent manner”, the “heart rate (HR)” value [8, 11] was “no effect” and the “mean arterial pressure (MAP)” value [8, 11] was “no effect”. The “heart rate (HR)” value ([8]; Control (Sham) mice) was “slightly increase”.
